Biological target: MDM2 (Homo sapiens, UniProt Q00987)
Assay: biochemical

Sequence of MDM2 (Q00987 1-118): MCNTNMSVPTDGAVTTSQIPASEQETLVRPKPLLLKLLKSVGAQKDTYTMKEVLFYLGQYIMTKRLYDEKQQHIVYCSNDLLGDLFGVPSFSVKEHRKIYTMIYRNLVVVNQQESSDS

Work on `CC(C)(C)C[C@H]1N[C@@H](C(=O)NCC[C@H](O)CO)[C@H](c2ccc(F)c(Cl)c2)[C@@]12C(=O)Nc1cc(Cl)c(F)cc12` [MI-319] yielded a Ki of 9.6 ± 3.9 nM.

— paper PMC2794250, “An MDM2 antagonist (MI-319) restores p53 functions and increases the life span of orally treated follicular lymphoma bearing animals” (2009)
